Literature values in patent publication US6955827B2, “Method of controlling release of antimicrobial agents in chewing gum” (Wm. Wrigley Jr. Company, priority 1997, dated 2005).

Conditions: at 25° C.

Structure (SMILES)	water solubility
CCCCCCCCCCCCCCCC[n+]1ccccc1 [Cetylpyridinium chloride, cetylpyridinium chloride]	33%
N=C(NCCCCCCNC(=N)NC(=N)Nc1ccc(Cl)cc1)NC(=N)Nc1ccc(Cl)cc1.O=C(O)[C@H](O)[C@@H](O)[C@H](O)[C@H](O)CO.O=C(O)[C@H](O)[C@@H](O)[C@H](O)[C@H](O)CO [Chlorhexidine digluconate, chlorhexidine digluconate]	50%
CCCCCCc1ccc(O)cc1O [Hexylresorcinol, hexylresorcinol]	about 0.05%
Oc1cc(Cl)ccc1Oc1ccc(Cl)cc1Cl [Triclosan, 2,4,4-trichloro-2-hydroxydiphenyl ether]	about 0.05%
